Measured values as given in patent US20240343666A1, “PERINAPHTHENONE COMPOUND AND USE THEREOF” (INSTITUTE OF MEDICINAL BIOTECHNOLOGY, CHINESE ACADEMY OF …, priority 2021, published 2024).

Target: TRIM25 (Homo sapiens, UniProt Q14258)
Assay type: cell-based
Parameters: endogenous in cells

Chain of TRIM25 (Q14258 whole entry, species assumed): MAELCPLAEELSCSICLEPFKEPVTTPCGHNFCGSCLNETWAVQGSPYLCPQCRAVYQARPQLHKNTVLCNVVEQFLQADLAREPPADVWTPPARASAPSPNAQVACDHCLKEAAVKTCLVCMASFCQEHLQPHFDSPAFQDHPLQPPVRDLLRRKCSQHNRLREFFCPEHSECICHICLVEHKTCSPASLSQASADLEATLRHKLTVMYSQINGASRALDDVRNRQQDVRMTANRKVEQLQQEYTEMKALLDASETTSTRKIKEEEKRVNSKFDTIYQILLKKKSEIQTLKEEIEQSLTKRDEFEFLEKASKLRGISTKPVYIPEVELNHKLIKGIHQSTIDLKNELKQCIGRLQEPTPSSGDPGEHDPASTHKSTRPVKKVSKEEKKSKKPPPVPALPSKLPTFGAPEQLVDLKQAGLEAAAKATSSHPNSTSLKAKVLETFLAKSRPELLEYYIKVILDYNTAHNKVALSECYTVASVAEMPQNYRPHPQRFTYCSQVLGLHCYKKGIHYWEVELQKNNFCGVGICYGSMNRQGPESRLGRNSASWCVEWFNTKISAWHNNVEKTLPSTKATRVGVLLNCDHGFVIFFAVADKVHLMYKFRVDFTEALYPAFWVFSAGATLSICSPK

`C/C(=C\CC/C(C)=C/C[C@]1(O)C(=O)c2c(O)cc(C)c3c(O)c(C)c(O)c(c23)C1=O)CC/C=C(\CO)CC[C@@H](O)C(C)(C)O` [Compound C1] was tested, and the “Anti-influenza activity after TRIM25 knockdown” value was “significantly affected” and the “Anti-influenza activity on overexpression of TRIM25 in TRIM25 knockout cell line” value was “restore the anti-influenza activity of compound C1 to a normal cell level”.
